Results taken from US20050221422A1, “Novel galactose transferases, peptides thereof and nucleic acid encoding the same” (priority 2002, published 2005).
Ends that are not written are not given here. T(GalNAc) = N-acetylgalactosamine-glycosylated threonine

Assays:
[1] = system: C1Gal-T2; experiment: Screening for acceptor substrate of C1Gal-T2 (UDP-[14C]-Gal transfer, TLC, LSC-C1Gal-T2 cell extract); type: biochemical, human; details: LSC-C1Gal-T2 cell extract as enzyme source; acceptor substrate 10 nmol; 37° C. for two hours
Experimental: The reaction system below was used to investigate C2 acceptor substrates. To investigate whether pNp-α-GalNAc or pNp-β-GalNAc (both from Sigma) functioned as acceptors, each was used as an “acceptor substrate” in the following reaction solution:
The reaction solution (the parentheses show final concentrations) comprised acceptor substrate (10 nmol), HEPES buffer (pH 7.4) (14 mM), MnCl2 (12.5 mM), UDP-Gal (250 μM), and UDP-[^14C]-Gal (175 nCi). 5 μl of enzyme solution was added to this reaction solution, followed by the addition of H2O to a total volume of 20 μl. The enzyme solution was prepared by suspending cells (5×10^6 cells) in 50 ml of cell lysing buffer (HEPES buffer (pH 7.4) (20 mM), NaCl (154 mM) and TritonX-100 (1%)), incubating at 4° C. for 15 minutes in a water bath type ultrasonic homogenizer, centrifuging, and then obtaining the supernatant for the enzyme solution. The aforementioned reaction mixture was reacted at 37° C. for two hours. Following completion of the reaction, 200 μl of H2O was added to the mixture, which was gently centrifuged to obtain the supernatant. […] After drying the plate, the amount of radioactivity taken up by the product was measured using the Bio Image Analyzer FLA3000 (Fuji Photo Film).

[2] = target: T1, C1Gal-T3 (Homo sapiens, UniProt P0DN25); experiment: Galactose transferring activity of C1Gal-T3 recombinant enzyme on N-acetylgalactosaminyl peptides; type: biochemical; details: C1Gal-T3 recombinant enzyme expressed in COS-1 cells as enzyme source
T1 construct: a carboxyl terminal region (enzyme activity region) minus the transmembrane region at the amino terminus; preprotrypsin secretion signal (N); made in house; host or cells: COS-1 cells, transient transfection with pFLAG-C1Gal-T3; purified from culture supernatant on anti-FLAG M1 agarose
Experimental: The reaction solution (parentheses indicate final concentrations) comprised acceptor substrate (5 pmol), MES buffer (pH 6.5) (100 mM), MnCl2 (20 mM), ATP (2 mM), and UDP-Gal (0.5 mM). 5 μl of […] enzyme source was added to this reaction solution, which was then brought to a total volume of 20 μl by adding H2O.
The above reaction mixture was reacted at 37° C. for eight hours. After completion of the reaction, 60 μl of H2O was added, and the mixture was gently centrifuged to acquire the supernatant. This supernatant was purified through an Ultra Free MC Column (Millipore), and 30 μl of thus-purified solution was analyzed using high-performance liquid chromatography (HPLC). CAPCELL PAK C18 UG120 (Shiseido) was used as the column, 0.1% trifluoroacetic acid was used as the separation buffer, and the elution was carried out over an acetonitrile concentration gradient of 15-30%. The flow rate was 1 ml/minute.
Galactose transferring activity was measured using the C1Gal-T3 recombinant enzyme expressed in COS-1 cells as an enzyme source, and using the N-acetylgalactosaminyl peptides used in Example 5 as acceptor substrates.

T1 sequence (P0DN25 30-315 limits assumed): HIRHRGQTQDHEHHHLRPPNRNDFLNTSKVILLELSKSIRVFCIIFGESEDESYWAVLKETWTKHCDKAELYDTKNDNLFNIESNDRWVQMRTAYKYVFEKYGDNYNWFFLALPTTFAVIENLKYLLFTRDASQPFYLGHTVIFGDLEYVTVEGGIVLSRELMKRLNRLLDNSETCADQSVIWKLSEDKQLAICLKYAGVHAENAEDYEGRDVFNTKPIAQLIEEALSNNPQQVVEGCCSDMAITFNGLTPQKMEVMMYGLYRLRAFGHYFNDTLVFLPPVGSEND

| Compound | reaction as acceptor substrate (galactose transfer from UDP-Gal) [1] | galactose transferring activity [2] |
| --- | --- | --- |
| CC(=O)N[C@H]1[C@@H](Oc2ccc([N+](=O)[O-])cc2)O[C@H](CO)[C@H](O)[C@@H]1O [pNp-α-GalNAc] | reacted strongly |  |
| CC(=O)N[C@H]1[C@H](Oc2ccc([N+](=O)[O-])cc2)O[C@H](CO)[C@H](O)[C@@H]1O [pNp-β-GalNAc] | did not react |  |
| VPST(GalNAc)PPTPSPSTPPTPSPS ({Val-Pro-Ser-T(GalNAc)}-PPTPSPSTPPTPSPS) [4-GalNAc-HP, human IgA1 hinge peptide with GalNAc on the 4th residue] |  | could be confirmed |
